This note sets out measurements from paper PMC11481179, “Development and Application of Reversible and Irreversible Covalent Probes for Human and Mouse Cathepsin‐K Activity Detection, Revealing Nuclear Activity” (Advanced Science, 2024).

The Ki is the equilibrium dissociation constant of an inhibitor or competing ligand from its target. The kinact is the maximal first-order rate at which the target is inactivated. Usually IC50 stands for the concentration at which inhibition is half-maximal. High values mean lower potency, low ones higher potency.

For one assay, the target named is T1, CTSK (Homo sapiens, UniProt P43235).
T1 sequence (P43235 115-329): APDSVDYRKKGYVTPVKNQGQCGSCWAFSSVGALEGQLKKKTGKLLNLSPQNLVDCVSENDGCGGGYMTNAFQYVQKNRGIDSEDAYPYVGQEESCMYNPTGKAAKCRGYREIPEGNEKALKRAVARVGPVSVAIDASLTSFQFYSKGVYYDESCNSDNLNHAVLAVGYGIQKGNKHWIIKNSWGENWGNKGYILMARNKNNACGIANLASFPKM
Kind of assay: In vitro kinetic evaluation of cathepsin inhibition, fluorescent substrate Z-FR-AMC. The class given is biochemical. The following applies: for mode of inhibition: CTSK. The text has this: used for TLC. Phosphate Buffer Saline (PBS) was purchased from Biological Industries (pH = […]
7.4) and was used as a buffer system in all experiments if not indicated otherwise. […]
Recombinant human CTSB, CTSK, CTSL, and CTSS were supplied by B. Turk (J.
Stefan Institute).[1] […]
Fluorescent gels were scanned by a Typhoon FLA 9500 flatbed laser scanner (GE Healthcare […]
Bio-Sciences AB, Uppsala, Sweden). BioRad ChemiDox XRS+ was used for western blot […]
analysis. Olympus FV10i inverted microscope (Tokyo,Japan) with Fluoview software or Zeiss […]
Confocal LSM 980 with Airyscan (Germany) with Zen software were used for confocal […]
In vitro kinetic evaluation of labeling recombinant cathepsins:
Reactions were monitored for 30 min at 37° C in 96-well black flat-bottom microplates […]
(Greiner, Germany) using Tecan […] M1000 pro plate reader (Tecan, Switzerland), […]
substrates Z-RR-AMC (CTSL) or Z-FR-AMC (CTSS, CTSB and CTSK), and excitation and […]
emission wavelengths of 370 and 460 nm, respectively. Cathepsin concentrations in the assay were 0.4 nM (CTSK) or 5 nM (CTSS, CTSB, and CTSL). The buffer was 100 mM Na2HPO4/NaH2PO4, 50 mM NaCl, 5 mM DTT, 0,1% Peg-6000, pH 6. For irreversible inhibitors, reaction data were fitted to the one-phase association formula in GraphPad Prism 9 software: Y=Y0 + (Plateau-Y0)*(1-exp(-K*X)) where in this case Y0 and Y represent fluorescence signal at times 0 and t, respectively, K represent the observed reaction rate kobs and X the inhibitor concentration. Inactivation rates at each inhibitor concentration were […]
maximal rate of inactivation (kinact) was obtained as the asymptote from equation […]
for each X, and Kiapp is the apparent inhibition constant. Ki values were calculated from IC50 or from Kiapp using formulas Ki = Kiapp / (1 + Km/S) and IC50 = E0/2 + Kiapp, where Km stands for Michalis-Menten constant, S for substrate concentration and E0 for cathepsin concentration.
The highest inhibitor concentrations in the assay were 50 µM. Measurements were performed in several independent duplicates. Average values are presented with standard deviations. […]

In a further assay the target is CTSS (Homo sapiens, UniProt P25774). Kind of assay: Recombinant cathepsin labeling by ABPs, in-gel fluorescence. The class given is binding. The conditions noted are these: increasing probe concentrations, 1 h. The method, then: The ABPs were tested for binding to recombinant CTSK compared to the closely related CTSB, CTSL, and CTSS, which are highly abundant and active in most biological samples. Using the in‐gel fluorescent analysis that detects the stable enzyme‐probe complex, active CTSK was labeled with each of the four probes, and significant selectivity was found in three probes GD32, GD37, and GD42 (Figure 1a). […] However, the minimum amount of active CTSK the remaining probes detected was much higher, ranging from 8 to 70 ngs, (Figure 1b).
Chain of CTSS (P25774 115-331): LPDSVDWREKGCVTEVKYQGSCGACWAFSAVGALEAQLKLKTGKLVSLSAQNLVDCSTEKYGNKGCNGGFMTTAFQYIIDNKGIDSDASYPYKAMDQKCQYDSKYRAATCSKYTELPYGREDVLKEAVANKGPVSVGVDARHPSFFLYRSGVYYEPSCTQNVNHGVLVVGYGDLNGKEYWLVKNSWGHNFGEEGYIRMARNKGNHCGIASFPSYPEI
Figure 1 In vitro evaluation of CTSK targeted compounds. a) Labeling of recombinant cathepsins by ABPs. Recombinant cathepsins were treated with increasing concentrations of ABPs for 1 h. Samples were separated by SDS‐PAGE and scanned for fluorescence by a Typhoon scanner at 635/670 nm. All probes show dose‐dependent binding to the CTSK, and have lower affinity to CTSS except GD36, b) CTSK [0.5–280 ng] was labeled with the indicated ABPs [5 µM]. Incubations were performed for 1 h at 37 °C, at pH 5.5. Samples were analyzed as described in (a). c) Recombinant cathepsins B, K, L, and S [0.5 µM] were first treated with the indicated concentrations of the inhibitor GD30 or vehicle for 1 h followed by incubation with a pan cathepsin probe GB123 [1 µM] for 1 h. Samples were analyzed as described in (a). d) Quantitative analysis of CTSK inhibition by GD30 presented in (d), data represent mean values ± standard error, n = 3. e) IC50 plot of GD30 inhibition of CTSK activity. […]
emission wavelengths of 370 and 460 nm, respectively. Cathepsin concentrations in the assay were 0.4 nM (CTSK) or 5 nM (CTSS, CTSB, and CTSL). […] For irreversible inhibitors, reaction data were fitted to the one-phase association formula in GraphPad Prism 9 software: Y=Y0 + (Plateau-Y0)*(1-exp(-K*X)) where in this case Y0 and Y represent fluorescence signal at times 0 and t, respectively, K represent the observed reaction rate kobs and X the inhibitor concentration. […]
reaction was stopped and samples were analyzed as described above. […]

Turning to `C#CCNC(=O)[C@H](CC(C)C)N[C@@H](c1ccc(-c2ccc(S(=O)(=O)CCNC(=O)CCCCC[N+]3=C(/C=C/C=C/C=C4/N(C)c5ccc(S(=O)(=O)O)cc5C4(C)C)C(C)(C)c4cc(S(=O)(=O)O)ccc43)cc2)cc1)C(F)(F)F` [GD32], at CTSK, the mode of inhibition result is recorded as “Irreversible”. Besides, at CTSK (CTSK 0.4 nM, pH 6, 37 °C), the Ki stood at 3.6 nM, the kinact is 0.0007 ± 0.0001 s⁻¹ and the kinact/Ki is on record as 26 ± 14 × 10^4 M^−1sec^−1. Besides, the “labeling of CTSS relative to CTSK” value on CTSS is reported as “only labeled CTSS at higher concentrations”.
With `CC(C)C[C@H](N[C@@H](c1ccc(-c2ccc(S(=O)(=O)CCNC(=O)CCCCC[N+]3=C(/C=C/C=C/C=C4/N(C)c5ccc(S(=O)(=O)O)cc5C4(C)C)C(C)(C)c4cc(S(=O)(=O)O)ccc43)cc2)cc1)C(F)(F)F)C(=O)NC1(C#N)CC1` [GD37], the mode of inhibition entry on CTSK was “Reversible [Tight binding]”. Moreover, the IC50 on CTSK (CTSK 0.4 nM, tight binding) worked out at 0.4 nM. The “labeling of CTSS relative to CTSK” value at CTSS is reported as “only labeled CTSS at higher concentrations”.
